Reference: article PMC10299909, “Structural basis of efficacy-driven ligand selectivity at GPCRs” (Nature Chemical Biology, 2023)
Substitutions are numbered along the chain they refer to.

Legend:
M3 mAChR [1] = target: T1, M3 mAChR (Homo sapiens, UniProt P20309); assay: whole-cell [3H]NMS radioligand competition binding, CHO FlpIn cells; conditions: first set of experiments, read-out: pKI (radioligand binding competition with [3H]NMS) (converted)
T1 construct: expressed in transfected cells; host or cells: CHO FlpIn

M4 mAChR [2] = target: T2, M4 mAChR (Homo sapiens, UniProt P08173); assay: as above; conditions: read-out: Affinities M2 M4: binding normalised to Buffer only-TB = 100
T2 construct: expressed in transfected cells; host or cells: CHO FlpIn
T2 sequence (P08173 1-479): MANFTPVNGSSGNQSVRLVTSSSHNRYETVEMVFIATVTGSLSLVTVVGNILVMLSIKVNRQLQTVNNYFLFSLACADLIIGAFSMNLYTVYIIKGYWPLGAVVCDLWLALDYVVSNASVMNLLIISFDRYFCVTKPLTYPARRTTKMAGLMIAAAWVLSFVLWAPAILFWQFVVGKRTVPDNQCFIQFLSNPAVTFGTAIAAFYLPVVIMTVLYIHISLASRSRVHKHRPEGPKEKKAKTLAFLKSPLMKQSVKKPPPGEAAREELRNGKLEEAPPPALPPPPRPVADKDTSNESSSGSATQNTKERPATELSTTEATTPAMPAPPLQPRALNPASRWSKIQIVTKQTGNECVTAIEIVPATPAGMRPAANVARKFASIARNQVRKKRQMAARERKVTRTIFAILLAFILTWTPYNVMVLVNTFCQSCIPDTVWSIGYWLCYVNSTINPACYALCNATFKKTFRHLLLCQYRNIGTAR

M3 mAChR [3] = target: T1, M3 mAChR; assay: pERK1/pERK2 signaling assay (AlphaScreen SureFire), CHO FlpIn cells; type: cell-based
M4 mAChR [4] = target: T2, M4 mAChR; assay: as above; type: cell-based
M5 mAChR = target: T3, M5 mAChR (Homo sapiens, UniProt P08912); assay: as above; type: cell-based; conditions: first set of experiments
T3 construct: expressed in transfected cells; host or cells: CHO FlpIn
T3 sequence (P08912 1-532): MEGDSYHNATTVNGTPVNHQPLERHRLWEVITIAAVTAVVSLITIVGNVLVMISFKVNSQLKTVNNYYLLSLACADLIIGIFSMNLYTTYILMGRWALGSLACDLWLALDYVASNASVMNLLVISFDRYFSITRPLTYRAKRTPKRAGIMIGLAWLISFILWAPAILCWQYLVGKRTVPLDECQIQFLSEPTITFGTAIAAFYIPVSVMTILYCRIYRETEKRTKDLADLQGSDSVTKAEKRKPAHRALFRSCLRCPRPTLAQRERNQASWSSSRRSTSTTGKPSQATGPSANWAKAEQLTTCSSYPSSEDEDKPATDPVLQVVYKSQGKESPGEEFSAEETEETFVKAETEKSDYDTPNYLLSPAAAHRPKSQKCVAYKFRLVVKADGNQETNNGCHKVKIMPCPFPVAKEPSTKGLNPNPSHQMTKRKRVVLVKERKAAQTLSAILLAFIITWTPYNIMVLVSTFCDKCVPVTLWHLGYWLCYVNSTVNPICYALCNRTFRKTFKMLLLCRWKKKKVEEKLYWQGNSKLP

M4 L190F mAChR [5] = target: T4, M4 L190F mAChR (Homo sapiens, UniProt P08173, L190F); assay: as above; type: cell-based; conditions: M4(L190F); second set of experiments
T4 construct: expressed in transfected cells; host or cells: CHO FlpIn
T4 sequence (P08173 1-479 L190F): T2 sequence (P08173 1-479) with L190F

M2 WT mAChR = target: T5, M2 WT mAChR (Homo sapiens, UniProt P08172); assay: BRET TRUPATH GoA activation (G-protein dissociation) assay; type: cell-based; conditions: M2 WT; T=[…]
T5 construct: expressed in transfected cells; host or cells: CHO FlpIn
T5 sequence (P08172 1-466): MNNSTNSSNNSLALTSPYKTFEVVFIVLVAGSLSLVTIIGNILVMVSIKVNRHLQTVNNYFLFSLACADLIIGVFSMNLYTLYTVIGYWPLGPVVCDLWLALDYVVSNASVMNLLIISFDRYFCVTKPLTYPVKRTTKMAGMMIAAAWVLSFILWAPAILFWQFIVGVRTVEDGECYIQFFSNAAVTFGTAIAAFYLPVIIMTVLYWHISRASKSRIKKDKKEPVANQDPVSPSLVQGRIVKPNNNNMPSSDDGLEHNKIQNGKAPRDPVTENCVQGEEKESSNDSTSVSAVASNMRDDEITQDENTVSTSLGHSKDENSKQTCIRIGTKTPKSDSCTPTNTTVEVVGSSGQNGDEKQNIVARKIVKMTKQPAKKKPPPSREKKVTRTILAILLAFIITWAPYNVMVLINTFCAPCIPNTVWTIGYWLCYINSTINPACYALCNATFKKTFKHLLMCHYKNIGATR
Method: (§1) Cells were seeded at 20,000 cells per well into 96-well flat-bottom white culture plates and grown for 4 h. Plasmid DNA (20 ng per well of Gα, Gβ and Gγ at a 1:1:1 ratio) and linear polyethylenimine were added to the cells in a 1:6 ratio. To allow for protein expression, cells were then incubated (37 °C, 5% CO2) for 48 h before the measurement of agonist activity. […] The initial 4 min of measurement was considered baseline counts before ligand or vehicle addition, with BRET readings every 2 min for a further 8 min following drug or vehicle addition.
(§2) Concentration–response curves were fitted to a three-parameter logistic equation to derive ligand potency (pEC50) estimates.
(§3) Data was analyzed using the operational model of agonism to quantify the efficacy (Logτ) of each agonist in each cell line, and subsequently corrected for receptor expression level differences between cell lines (Logτc), using the M2 WT as reference. […] Source data

M4 L190F mAChR [6] = target: T4, M4 L190F mAChR; assay: as above; type: cell-based; conditions: T=[…]
Method: as §1, §2, §3

M4 WT mAChR = target: T6, M4 WT mAChR (Homo sapiens, UniProt P08173); assay: as above; type: cell-based; conditions: T=[…]
T6 construct: expressed in transfected cells; host or cells: CHO FlpIn
T6 sequence (P08173 1-479): T2 sequence (P08173 1-479)

M2 mAChR = target: T7, M2 mAChR (Homo sapiens, UniProt P08172); assay: whole-cell [3H]NMS radioligand competition binding, CHO FlpIn cells
T7 sequence (P08172 1-466): T5 sequence (P08172 1-466)

T1 sequence (P20309 whole entry): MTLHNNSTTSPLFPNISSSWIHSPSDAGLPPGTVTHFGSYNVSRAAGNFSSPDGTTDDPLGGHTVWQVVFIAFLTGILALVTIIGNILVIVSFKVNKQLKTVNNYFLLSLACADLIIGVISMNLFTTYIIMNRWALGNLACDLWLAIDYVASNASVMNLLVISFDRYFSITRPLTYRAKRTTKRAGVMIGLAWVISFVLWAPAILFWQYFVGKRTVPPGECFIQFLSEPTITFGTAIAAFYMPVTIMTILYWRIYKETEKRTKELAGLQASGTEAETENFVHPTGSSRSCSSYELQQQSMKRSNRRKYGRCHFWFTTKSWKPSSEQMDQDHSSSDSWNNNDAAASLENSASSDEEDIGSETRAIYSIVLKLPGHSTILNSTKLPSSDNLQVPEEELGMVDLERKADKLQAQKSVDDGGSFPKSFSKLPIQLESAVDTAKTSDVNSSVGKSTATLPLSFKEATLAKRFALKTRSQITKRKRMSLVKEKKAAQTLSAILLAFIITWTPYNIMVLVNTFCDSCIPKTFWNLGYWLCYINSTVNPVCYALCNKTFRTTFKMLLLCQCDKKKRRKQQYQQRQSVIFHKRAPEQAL

CCCCCCOc1nsnc1C1=CCCN(C)C1 [Xanomeline, xanomeline]
Ki (M3 mAChR [1]): 100 nM
remaining binding at 10 µM (M4 mAChR [2]; M4, Log[Ligand] (M) -5, individual experiments): 1.95%
remaining binding at 1 µM (M4 mAChR [2]; M4, Log[Ligand] (M) -6, individual experiments): 18.6%
remaining binding at 0.1 µM (M4 mAChR [2]; M4, Log[Ligand] (M) -7, individual experiments): 88%
remaining binding at 0.001 µM (M4 mAChR [2]; M4, Log[Ligand] (M) -9, individual experiments): 105%
Emax pERK1/2 (M3 mAChR [3]): 62 ± 6 % FBS stimulation
EC50 (M3 mAChR [3]; M3, first set of experiments, read-out: pEC50 pERK1/2 (converted)): 117 nM
Emax pERK1/2 (M4 mAChR [4]; first set of experiments (top 5 rows)): 92 ± 4 % FBS stimulation
Emax pERK1/2 (M4 mAChR [4]; second set of experiments (bottom 4 rows)): 101 ± 3 % FBS stimulation
Emax pERK1/2 (M5 mAChR): 80 ± 8 % FBS stimulation
Emax pERK1/2 (M4 L190F mAChR [5]): 90 ± 8 % FBS stimulation
Log(Tau) corrected for receptor expression (Logτc), GoA activation (M2 WT mAChR): -0.65
Log(Tau) corrected for receptor expression (Logτc), GoA activation (M4 L190F mAChR [6]): -0.36
activation at 1000 µM (M4 L190F mAChR [6]; […], Log[Ligand] (M) -3, individual experiments, read-out: GoA activation response): 3.92%
activation at 10 µM (M4 L190F mAChR [6]; […], Log[Ligand] (M) -5, individual experiments, read-out: GoA activation response): 49%
Log(Tau) corrected for receptor expression (Logτc), GoA activation (M4 WT mAChR): 0.38
remaining binding at 0.1 µM (M2 mAChR; read-out: Affinities M2 M4: binding normalised to Buffer only-TB = 100, M2, Log[Ligand] (M) -7, individual experiments): 83.3%
remaining binding at 0.01 µM (M2 mAChR; read-out: Affinities M2 M4: binding normalised to Buffer only-TB = 100, M2, Log[Ligand] (M) -8, individual experiments): 90.2%
remaining binding at 0.0001 µM (M2 mAChR; read-out: Affinities M2 M4: binding normalised to Buffer only-TB = 100, M2, Log[Ligand] (M) -10, individual experiments): 101%
